Test results: paper PMC7076352 (Pharmaceutics, 2020)
Read-outs that look alike come from different tables or passages of the source.

Assays:
CYP2C19 [1] = experiment: in vitro; details: rat
Procedure, shortened: (§1)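 Probe substrates were pooled in a single microsomal incubation, with each substrate concentration optimized to keep metabolite formation linear. Metabolites were quantified against isotope-labelled internal standards: hydroxybupropion-[D6] (OHBUP-[D6]) and 5 nM 4′-hydroxydiclofenac-[^13C6] (OHDIC-[^13C6]).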

CYP2E1 = CYP2E1 (Rattus norvegicus, UniProt P05182); details: IC50 CYP2E1, single components; RLM 0.2 mg/mL, 15 min, triplicate, mean ± SD
Chain of CYP2E1 (P05182 whole entry): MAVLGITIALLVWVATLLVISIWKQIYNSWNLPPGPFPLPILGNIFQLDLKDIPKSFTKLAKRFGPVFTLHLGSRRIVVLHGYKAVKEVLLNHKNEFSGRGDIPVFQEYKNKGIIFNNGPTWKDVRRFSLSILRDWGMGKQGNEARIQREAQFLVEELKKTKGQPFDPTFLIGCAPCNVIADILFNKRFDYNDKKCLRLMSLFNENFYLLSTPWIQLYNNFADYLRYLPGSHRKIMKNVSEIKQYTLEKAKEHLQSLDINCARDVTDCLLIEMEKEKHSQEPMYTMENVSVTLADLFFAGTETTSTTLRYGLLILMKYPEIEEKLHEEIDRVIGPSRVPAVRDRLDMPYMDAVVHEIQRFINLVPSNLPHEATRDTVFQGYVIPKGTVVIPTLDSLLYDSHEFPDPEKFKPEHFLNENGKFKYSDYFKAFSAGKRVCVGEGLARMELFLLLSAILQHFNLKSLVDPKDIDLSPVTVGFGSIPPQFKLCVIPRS

[2] = test system: CYP450s (isozyme not named); experiment: In vitro cocktail CYP450 activity assay, isozyme not given; format: in vitro ADME, SD rat; details: Sprague-Dawley, rat, pH 7.4
Method: (OHBUP-[D6]) and 5 nM 4′-hydroxydiclofenac-[^13C6] (OHDIC-[^13C6]) as internal standards (ISs).

CYP3A4 = experiment: in vitro; details: Sprague-Dawley, rat, microsomes, pH 7.4
Procedure, shortened: as §1

CYP2D6 [3] = experiment: in vitro; details: rat, pH 7.4
Procedure, shortened: as §1

CYP2C9 [4] = experiment: in vitro; details: Sprague-Dawley, rat, microsomes, pH 7.4
Procedure, shortened: as §1

CYP2B6 [5] = experiment: in vitro; details: microsomes
Procedure, shortened: as §1

CYP2D6 [6] = details: read-out: Reported Km; probe substrate DEX, CYP2D6, literature range ref 9; cited from earlier work
CYP2C19 [7] = details: read-out: Reported Km; probe substrate OME, CYP2C19, literature range ref 9; cited from earlier work
CYP2C9 [8] = details: read-out: Reported IC50; positive inhibitor of CYP2C9, literature ref 17,18; cited from earlier work
CYP2B6 [9] = details: positive inhibitor of CYP2B6, literature ref 12,13; read-out: Reported IC50; cited from earlier work
not read = substrate: CCOc1ccc(NC(C)=O)cc1; experiment: not read; details: other: probe substrate, PHE to dEtPHE, CYP1A2, n = 3; pH 7.4; 37.0 °C

With `O=c1c(O)c(-c2ccc(O)c(O)c2)oc2cc(O)cc(O)c12` [A16, quercetin] the IC50 (CYP2C19 [1]; Sprague-Dawley, microsomes, pH 7.4) was 46.4 ± 7.05 µM, the IC50 (CYP2E1) was 20.3 ± 4.13 µM and the IC50 [2] was no more than 15 µM. For the same molecule, the IC50 (CYP3A4) was […], the IC50 (CYP2D6 [3]; Sprague-Dawley, microsomes) was 31.1 ± 3.91 µM and the IC50 (CYP2C9 [4]) was 13.5 ± 2.41 µM. The IC50 (CYP2B6 [5]; Sprague-Dawley, rat, pH 7.4) was 68.5 ± 9.88 µM.

In the case of `COc1ccc2c(c1)[C@]13CCCC[C@@H]1[C@H](C2)N(C)CC3` [DEX, dextromethorphan, reference compound], the Km (CYP2D6 [3]; SD) is given as 0.62 ± 0.08 µM and the Km (CYP2D6 [6]) is given as 0.44 to 8.5 µM.

For `COc1ccc2[nH]c([S+]([O-])Cc3ncc(C)c(OC)c3C)nc2c1` (stereo not shown) [OME, omeprazole, reference compound], the Km at 15 min (CYP2C19 [1]; SD, pooled rat liver microsomes, pH 7.4, probe omeprazole) is listed as 7.8 ± 1.65 µM and the Km (CYP2C19 [7]) is listed as 17 to 26 µM.

In the case of `S=P(N1CC1)(N1CC1)N1CC1` [TRI, triethylenethiophosphoramide, reference compound], the IC50 (CYP2B6 [9]) is listed as 1.75 to 26 µM and the IC50 (CYP2B6 [5]) is listed as 0.75 ± 0.0262 µM.

B1: CYP1A2 (Rattus norvegicus) (protein)
chain: MAFSQYISLAPELLLATAIFCLVFWVLRGTRTQVPKGLKSPPGPWGLPFIGHMLTLGKNPHLSLTKLSQQYGDVLQIRIGSTPVVVLSGLNTIKQALVKQGDDFKGRPDLYSFTLITNGKSMTFNPDSGPVWAARRRLAQDALKSFSIASDPTSVSSCYLEEHVSKEANHLISKFQKLMAEVGHFEPVNQVVESVANVIGAMCFGKNFPRKSEEMLNLVKSSKDFVENVTSGNAVDFFPVLRYLPNPALKRFKNFNDNFVLFLQKTVQEHYQDFNKNSIQDITGALFKHSENYKDNGGLIPQEKIVNIVNDIFGAGFETVTTAIFWSILLLVTEPKVQRKIHEELDTVIGRDRQPRLSDRPQLPYLEAFILEIYRYTSFVPFTIPHSTTRDTSLNGFHIPKECCIFINQWQVNHDEKQWKDPFVFRPERFLTNDNTAIDKTLSEKVMLFGLGKRRCIGEIPAKWEVFLFLAILLHQLEFTVPPGVKVDLTPSYGLTMKPRTCEHVQAWPRFSK
In the case of B1, the Km (not read) is reported as 65.26 ± 14.35 µM.
